The text below walks through data of patent US20160184274A1, “Methods for inhibiting mesenchymal phenotype after epithelial-to-mesenchymal transition” (Fibrostatin, S.L., priority 2014, published 2016).

Molecules are shown by their SMILES. Entries after “also recorded” stand apart in the source; their conditions may differ.

Assay [1] relates to A549 tumors with epithelial phenotype. The conditions noted are these: T12 20 mg/kg/day in drinking water, alone or with doxorubicin 4 mg/kg/week i.p.; previously reported, WO/2014/006020; cited from earlier work.
Assay [2] relates to mesenchymal A549 spheroids. The experiment in a line: Collagen network in mesenchymal spheroids, confocal microscopy. Type of assay: cell-based, Human. The protocol:
FIG. 7. T12 disrupts collagen IV network and reduces A549 mesenchymal spheroids viability. A549 spheroids were subjected to EMT induction with TGF-β and TNF-α during 4 days, and treated with T12 (10 μM) or maintained untreated (Cont) for the last 2 days. In A, spheroids were analyzed by immunofluorescence confocal microscopy with anti-α1α2 (IV) antibodies (COL4, white) and DAPI to visualize the cell nuclei (grey). In B, the culture media of the spheroids in A were used for assessing cell death by measuring LDH activity. […] Represented are Means (±SEM).
Three-dimensional spheroid cultures of A549 cells were obtained using a hanging droplet method (Kelm et al., 2003. Biotechnol. Bioeng. 83: 173-180.; Kumar et al., 2013. PLoS One. 8: e68597). Briefly, cells were grown to approximately 80% confluence on adherent tissue-culture flasks. Then cells were trypsinized, dispersed in DMEM/10% FBS, and counted using an automated cell counter (MOXI® Z, Orflo). The cell suspension was diluted to a 10^6 cells/mL-concentration, and 25 μl of the cell suspension were pipetted onto the underside of a sterile 10-cm tissue culture plate lid. Each lid was loaded with approximately 55 droplets. After loading, the lid was placed onto a tissue culture plate containing 6 mL of sterile PBS (phosphate-buffered saline) and incubated for 48 hours to facilitate spheroid formation. […]

Assay [3] concerns 4T1 mouse breast cancer cells. The experiment in a line: Murine breast cancer 4T1 model. Type of assay: in vivo, Balb/c mice. The method, then: FIG. 10. […] Control, n=43; T12, n=18. FIG. 11. T12 targets circulating 4T1 cancer cells. A, Balb/c female mice were inoculated with 4T1 mouse breast cancer cells at mammary fat pads. At day 20 after cell inoculation mice were subjected to PET analysis for metastases detection. White arrows denote metastatic foci at the spinal cord. B, Balb/c female from A were either left untreated (Control), or were treated with T12 in drinking water from day 20. At day 35 blood was seeded in the presence of 6-thioguanine and circulating 4T1 cells selected and further cultured. Shown are phase contrast images of the resulting cultures acquired with an inverted microscope. […] C, circulating 4T1 cells recovered as in B and 4T1 cells were cultured in standard 2D cultures and subjected to RNA extraction, and RNA samples were analyzed by RT-qPCR. Shown are the relative quantities (RQ) of the indicated mRNAs of circulating 4T1 cells using levels from 4T1 cells as reference. D, the cultures in C were treated with the indicated concentrations of T12 for 24 h. Dead cells in culture media were quantified by measuring cell size using an automated cell counter (Moxi Z, Orflo). The number of dead cells in the culture media of the respective untreated cells (−) was used as reference. E, circulating 4T1 cells recovered as in B or 4T1 cells were cultured in ultra-low binding plates and treated with the indicated concentrations of T12 for 9 days, cells were lysed and analyzed by Western blot using antibodies specific for activated caspase 3. The levels of GAPDH were determined for loading control purposes. For other assays, 10^4 4 T1 cells were suspended in 10 μl PBS and subcutaneously injected into the 4th mammary fat pad of 4-week-old Balb/c female mice, and either left untreated or treated since the inoculation day with T12 (12 mg/kg/day in drinking water). Primary tumors formed and dimensions were periodically measured with a caliper.

As for `COc1ccc(-c2ccc(-c3cccc(C)c3)c(C)c2)c(CCC(=O)O)c1` [T12, 3-[4″-methoxy-3,2′-dimethyl-(1,1′;4′,1″)terphenyl-2″-yl] propionic acid], in assay [1], the “tumor growth (relative tumor volume)” value is on record as “required the synergistic action of doxorubicin to efficiently inhibit tumor growth; also recorded: synergistic with doxorubicin”. For the same compound, the “collagen IV network formation” value in assay [2] (T12 10 μM for the last 2 days of 4-day EMT induction with TGF-β and TNF-α, FIG. 7A) is listed as “inhibited collagen IV network formation”. Further, in assay [2] (data not shown), the “fibrillary collagen I” value is “sharply reduced fibrillary collagen I”. Also, the “tumor volume (anti-tumor activity)” value in assay [3] (T12 12 mg/kg/day in drinking water from inoculation, FIG. 10B, 12 mg/kg/day) is “displayed anti-tumor activity; also recorded: differences are statistically significant”. In assay [3] (T12 12 mg/kg/day in drinking water, day 25, FIG. 10C, 12 mg/kg/day), the “superficial metastasis per lung” value is “inhibited metastasis formation; also recorded: Differences are statistically significant”. The “recovery of circulating 4T1 tumor cells from blood” value in assay [3] (T12 in drinking water from day 20, blood seeded at day 35 with 6-thioguanine, FIG. 11B) was “impeded the isolation of circulating 4T1 tumor cells; also recorded: could not be recovered”.
